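Method: 48-hour compound exposure of cells in 96-well plates, five concentrations, linear interpolation of endpoints. Here, GI50 denotes the concentration required for 50% inhibition of growth.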 Activity calls are given as the source filed them. Cut-off read from the data, not from the text of the source: active = GI50 up to about 1.1 µM and inactive = higher.
How the values were obtained:
Assay in all cases: growth of human tumour cells (NCI), 48 h
[1] = tested on: 786-0
[2] = tested on: A498
[3] = tested on: A549
[4] = tested on: ACHN
[5] = tested on: CCRF-CEM
[6] = tested on: COLO 205
[7] = tested on: DLD-1
[8] = tested on: DMS-273
[9] = tested on: EKVX
[10] = tested on: HCC 2998
[11] = tested on: HCT-116
[12] = tested on: HCT-15
[13] = tested on: HL-60
[14] = tested on: HOP-18
[15] = tested on: HOP-62
[16] = tested on: HT-29
[17] = tested on: IGROV-1
[18] = tested on: K562
[19] = tested on: KM-20L2
[20] = tested on: KM12
[21] = tested on: LOX IMVI
[22] = tested on: LXFL 529
[23] = tested on: M14
[24] = tested on: MOLT-4
[25] = tested on: Malme-3M
[26] = tested on: NCI-H226
[27] = tested on: NCI-H23
[28] = tested on: NCI-H460
[29] = tested on: NCI-H522
[30] = tested on: OVCAR-3
[31] = tested on: OVCAR-4
[32] = tested on: OVCAR-5
[33] = tested on: OVCAR-8
[34] = tested on: RPMI-8226
[35] = tested on: RXF 393
[36] = tested on: RXF 631
[37] = tested on: SF-268
[38] = tested on: SF-295
[39] = tested on: SF-539
[40] = tested on: SK-MEL-28
[41] = tested on: SK-MEL-2
[42] = tested on: SK-MEL-5
[43] = tested on: SK-OV-3
[44] = tested on: SN12C
[45] = tested on: SNB-19
[46] = tested on: SNB-75
[47] = tested on: SNB-78
[48] = tested on: SR
[49] = tested on: SW-620
[50] = tested on: TK-10
[51] = tested on: U-251
[52] = tested on: UACC-257
[53] = tested on: UACC-62
[54] = tested on: UO-31
[55] = tested on: XF498
[56] = tested on: CAKI-1
[57] = tested on: DMS-114
[58] = tested on: HOP-92
[59] = tested on: M19-MEL

COC(=O)CCC(NC(=S)N/N=C(\C)c1cnc2ccccc2n1)C(=O)OC (stereo not given)
GI50 [1]: 43.6 µM (inactive)
GI50 [2]: 92.9 µM (inactive)
GI50 [3]: 34.8 µM (inactive)
GI50 [4]: 20.6 µM (inactive)
GI50 [5]: 3.29 µM (inactive)
GI50 [6]: 2.55 µM (inactive)
GI50 [7]: 29 µM (inactive)
GI50 [8]: 38.5 µM (inactive)
GI50 [9]: 12.6 µM (inactive)
GI50 [10]: 32.1 µM (inactive)
GI50 [11]: 18.3 µM (inactive)
GI50 [12]: 35.1 µM
GI50 [13]: 2.33 µM (inactive)
GI50 [14]: 39.4 µM (inactive)
GI50 [15]: 45.7 µM (inactive)
GI50 [16]: 14.2 µM (inactive)
GI50 [17]: 35.4 µM (inactive)
GI50 [18]: 10.1 µM (inactive)
GI50 [19]: 15.5 µM (inactive)
GI50 [20]: 26 µM (inactive)
GI50 [21]: 23.2 µM (inactive)
GI50 [22]: 29.9 µM (inactive)
GI50 [23]: 30.8 µM (inactive)
GI50 [24]: 15.6 µM (inactive)
GI50 [25]: 41.3 µM (inactive)
GI50 [26]: 41.8 µM (inactive)
GI50 [27]: 58.3 µM (inactive)
GI50 [28]: 45.9 µM (inactive)
GI50 [29]: 11.2 µM (inactive)
GI50 [30]: 42.8 µM (inactive)
GI50 [31]: 25.9 µM (inactive)
GI50 [32]: 16.3 µM (inactive)
GI50 [33]: 46.9 µM (inactive)
GI50 [34]: 11.1 µM (inactive)
GI50 [35]: 30.2 µM (inactive)
GI50 [36]: 52.6 µM (inactive)
GI50 [37]: 29.7 µM (inactive)
GI50 [38]: 49.8 µM (inactive)
GI50 [39]: 41.8 µM (inactive)
GI50 [40]: 40.9 µM (inactive)
GI50 [41]: 56.8 µM (inactive)
GI50 [42]: 21.2 µM (inactive)
GI50 [43]: 76.9 µM (inactive)
GI50 [44]: 60.1 µM (inactive)
GI50 [45]: > 100 µM (inactive)
GI50 [46]: 47.4 µM (inactive)
GI50 [47]: > 100 µM (inactive)
GI50 [48]: 15.1 µM (inactive)
GI50 [49]: 20.8 µM (inactive)
GI50 [50]: > 100 µM (inactive)
GI50 [51]: 43.2 µM (inactive)
GI50 [52]: 49.5 µM (inactive)
GI50 [53]: 16.9 µM (inactive)
GI50 [54]: 27.4 µM (inactive)
GI50 [55]: > 100 µM (inactive)

Cc1ccc(/N=N/c2c(C)nn(-c3ccccc3)c2C)c(Br)c1
GI50 [1]: > 100 µM (inactive)
GI50 [2]: > 100 µM (inactive)
GI50 [3]: > 100 µM (inactive)
GI50 [4]: > 100 µM (inactive)
GI50 [56]: > 100 µM (inactive)
GI50 [5]: 27 µM (inactive)
GI50 [6]: > 100 µM (inactive)
GI50 [7]: 65.6 µM (inactive)
GI50 [57]: > 100 µM (inactive)
GI50 [8]: 51.3 µM (inactive)
GI50 [9]: > 100 µM (inactive)
GI50 [10]: > 100 µM (inactive)
GI50 [11]: 41.3 µM (inactive)
GI50 [12]: 36 µM
GI50 [13]: 6.84 µM (inactive)
GI50 [14]: > 100 µM (inactive)
GI50 [15]: > 100 µM (inactive)
GI50 [58]: > 100 µM (inactive)
GI50 [16]: 76.9 µM (inactive)
GI50 [17]: > 100 µM (inactive)
GI50 [18]: 27.3 µM (inactive)
GI50 [19]: > 100 µM (inactive)
GI50 [20]: 95.5 µM (inactive)
GI50 [21]: 53 µM (inactive)
GI50 [22]: 95.3 µM (inactive)
GI50 [23]: > 100 µM (inactive)
GI50 [59]: > 100 µM (inactive)
GI50 [24]: 64 µM (inactive)
GI50 [25]: > 100 µM (inactive)
GI50 [26]: > 100 µM (inactive)
GI50 [27]: > 100 µM (inactive)
GI50 [28]: 62.8 µM (inactive)
GI50 [30]: > 100 µM (inactive)
GI50 [31]: > 100 µM (inactive)
GI50 [32]: > 100 µM (inactive)
GI50 [33]: > 100 µM (inactive)
GI50 [34]: 36 µM (inactive)
GI50 [35]: 54 µM (inactive)
GI50 [36]: > 100 µM (inactive)
GI50 [37]: > 100 µM (inactive)
GI50 [38]: > 100 µM (inactive)
GI50 [39]: > 100 µM (inactive)
GI50 [40]: > 100 µM (inactive)
GI50 [41]: > 100 µM (inactive)
GI50 [42]: 66.1 µM (inactive)
GI50 [43]: > 100 µM (inactive)
GI50 [44]: > 100 µM (inactive)
GI50 [45]: > 100 µM (inactive)
GI50 [46]: > 100 µM (inactive)
GI50 [47]: > 100 µM (inactive)
GI50 [49]: 70.8 µM (inactive)
GI50 [50]: > 100 µM (inactive)
GI50 [51]: 60.8 µM (inactive)
GI50 [52]: 89.7 µM (inactive)
GI50 [53]: 89.9 µM (inactive)
GI50 [55]: > 100 µM (inactive)

CCc1nc2ccccc2c(=O)n1/N=C(\N=N\c1ccc(Cl)cc1)c1ccc(N(C)C)cc1
GI50 [2]: 38.3 µM (inactive)
GI50 [3]: 42.7 µM (inactive)
GI50 [4]: 28.7 µM (inactive)
GI50 [5]: 27.6 µM (inactive)
GI50 [6]: 27.2 µM (inactive)
GI50 [7]: 30.1 µM (inactive)
GI50 [57]: 12.2 µM (inactive)
GI50 [8]: 32.3 µM (inactive)
GI50 [9]: 28.1 µM (inactive)
GI50 [11]: 17.7 µM (inactive)
GI50 [12]: 29.2 µM
GI50 [13]: 20.5 µM (inactive)
GI50 [14]: 25.5 µM (inactive)
GI50 [15]: 13.3 µM (inactive)
GI50 [58]: 13.7 µM (inactive)
GI50 [18]: 16.7 µM (inactive)
GI50 [19]: 23.6 µM (inactive)
GI50 [21]: 47.5 µM (inactive)
GI50 [22]: 23.7 µM (inactive)
GI50 [23]: 33.3 µM (inactive)
GI50 [24]: 20.6 µM (inactive)
GI50 [27]: 22.8 µM (inactive)
GI50 [28]: 24.5 µM (inactive)
GI50 [29]: 22.3 µM (inactive)
GI50 [33]: 34.9 µM (inactive)
GI50 [34]: 17.4 µM (inactive)
GI50 [35]: 56 µM (inactive)
GI50 [36]: 67.6 µM (inactive)
GI50 [37]: 32.1 µM (inactive)
GI50 [39]: 30.3 µM (inactive)
GI50 [40]: 30.1 µM (inactive)
GI50 [42]: 21.9 µM (inactive)
GI50 [43]: 27.7 µM (inactive)
GI50 [44]: 27.7 µM (inactive)
GI50 [49]: 45.1 µM (inactive)
GI50 [50]: 61.9 µM (inactive)
GI50 [51]: 27.3 µM (inactive)
GI50 [54]: 12.2 µM (inactive)
GI50 [55]: 25.1 µM (inactive)
